Measured values: paper PMC2951761 (Biochemistry, 2010)
Read-outs that look alike come from different tables or passages of the source.

What was measured:
EF CC activity = EF CC activity (Bacillus anthracis, UniProt P40136); assay type: biochemical; details: read-out: Ki EF CC activity
CyaA CC activity = CyaA CC activity (Bordetella pertussis, UniProt P0DKX7); assay type: biochemical; details: read-out: Ki CyaA CC activity
EF AC activity [1] = target: T1, EF AC activity (Bacillus anthracis, UniProt P40136); details: read-out: Ki EF AC activity; cited from earlier work
CyaA AC activity = CyaA AC activity (Bordetella pertussis, UniProt P0DKX7); details: read-out: Ki CyaA AC activity; cited from earlier work
EF AC activity [2] = target: T1, EF AC activity; assay type: biochemical; details: read-out: Ki EF AC activity

Sequence of CyaA AC activity (P0DKX7 whole entry, looked up): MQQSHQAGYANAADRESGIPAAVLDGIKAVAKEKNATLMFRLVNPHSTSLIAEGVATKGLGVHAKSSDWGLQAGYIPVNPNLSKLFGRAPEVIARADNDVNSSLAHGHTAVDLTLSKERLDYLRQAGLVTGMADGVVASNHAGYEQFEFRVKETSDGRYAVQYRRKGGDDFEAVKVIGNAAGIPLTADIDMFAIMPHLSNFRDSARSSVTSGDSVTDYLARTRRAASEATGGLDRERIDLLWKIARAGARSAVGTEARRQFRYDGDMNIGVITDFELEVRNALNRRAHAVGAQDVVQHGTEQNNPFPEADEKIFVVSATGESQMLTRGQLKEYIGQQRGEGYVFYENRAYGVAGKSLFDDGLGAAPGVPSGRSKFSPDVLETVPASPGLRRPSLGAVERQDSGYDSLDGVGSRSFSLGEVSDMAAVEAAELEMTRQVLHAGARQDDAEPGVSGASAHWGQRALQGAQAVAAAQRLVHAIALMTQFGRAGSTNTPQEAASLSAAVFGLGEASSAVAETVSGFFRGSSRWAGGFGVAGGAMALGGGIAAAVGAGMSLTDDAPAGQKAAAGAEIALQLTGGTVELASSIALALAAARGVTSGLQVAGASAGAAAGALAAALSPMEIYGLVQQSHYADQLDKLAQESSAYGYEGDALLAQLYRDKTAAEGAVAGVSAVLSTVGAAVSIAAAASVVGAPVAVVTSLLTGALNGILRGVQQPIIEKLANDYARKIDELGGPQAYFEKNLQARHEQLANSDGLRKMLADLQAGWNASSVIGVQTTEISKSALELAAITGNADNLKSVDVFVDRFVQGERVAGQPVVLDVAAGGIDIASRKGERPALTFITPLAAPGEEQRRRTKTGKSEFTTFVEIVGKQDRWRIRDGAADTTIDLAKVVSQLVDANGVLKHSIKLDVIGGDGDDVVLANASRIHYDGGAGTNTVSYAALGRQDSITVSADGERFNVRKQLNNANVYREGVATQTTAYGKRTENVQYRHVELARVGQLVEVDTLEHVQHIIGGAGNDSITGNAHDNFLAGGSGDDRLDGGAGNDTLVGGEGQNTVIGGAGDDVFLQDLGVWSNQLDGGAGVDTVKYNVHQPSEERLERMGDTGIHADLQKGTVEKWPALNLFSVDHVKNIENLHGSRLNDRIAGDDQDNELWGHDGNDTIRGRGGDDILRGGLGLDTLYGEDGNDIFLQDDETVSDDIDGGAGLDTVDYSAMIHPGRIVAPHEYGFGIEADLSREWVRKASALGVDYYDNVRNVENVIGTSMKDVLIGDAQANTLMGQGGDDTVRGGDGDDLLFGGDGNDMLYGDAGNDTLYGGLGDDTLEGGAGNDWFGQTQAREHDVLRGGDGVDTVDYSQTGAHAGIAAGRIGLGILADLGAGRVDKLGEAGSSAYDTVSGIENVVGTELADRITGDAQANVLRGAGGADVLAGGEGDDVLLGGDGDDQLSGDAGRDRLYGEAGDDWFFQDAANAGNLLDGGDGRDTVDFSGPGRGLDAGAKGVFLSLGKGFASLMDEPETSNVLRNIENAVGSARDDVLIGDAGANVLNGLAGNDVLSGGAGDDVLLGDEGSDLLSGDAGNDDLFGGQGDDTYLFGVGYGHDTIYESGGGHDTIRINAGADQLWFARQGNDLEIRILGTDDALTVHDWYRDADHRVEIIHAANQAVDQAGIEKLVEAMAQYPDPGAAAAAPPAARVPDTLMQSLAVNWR
Sequence of CyaA CC activity (P0DKX7 whole entry, looked up): as above
T1 sequence (P40136 whole entry, looked up): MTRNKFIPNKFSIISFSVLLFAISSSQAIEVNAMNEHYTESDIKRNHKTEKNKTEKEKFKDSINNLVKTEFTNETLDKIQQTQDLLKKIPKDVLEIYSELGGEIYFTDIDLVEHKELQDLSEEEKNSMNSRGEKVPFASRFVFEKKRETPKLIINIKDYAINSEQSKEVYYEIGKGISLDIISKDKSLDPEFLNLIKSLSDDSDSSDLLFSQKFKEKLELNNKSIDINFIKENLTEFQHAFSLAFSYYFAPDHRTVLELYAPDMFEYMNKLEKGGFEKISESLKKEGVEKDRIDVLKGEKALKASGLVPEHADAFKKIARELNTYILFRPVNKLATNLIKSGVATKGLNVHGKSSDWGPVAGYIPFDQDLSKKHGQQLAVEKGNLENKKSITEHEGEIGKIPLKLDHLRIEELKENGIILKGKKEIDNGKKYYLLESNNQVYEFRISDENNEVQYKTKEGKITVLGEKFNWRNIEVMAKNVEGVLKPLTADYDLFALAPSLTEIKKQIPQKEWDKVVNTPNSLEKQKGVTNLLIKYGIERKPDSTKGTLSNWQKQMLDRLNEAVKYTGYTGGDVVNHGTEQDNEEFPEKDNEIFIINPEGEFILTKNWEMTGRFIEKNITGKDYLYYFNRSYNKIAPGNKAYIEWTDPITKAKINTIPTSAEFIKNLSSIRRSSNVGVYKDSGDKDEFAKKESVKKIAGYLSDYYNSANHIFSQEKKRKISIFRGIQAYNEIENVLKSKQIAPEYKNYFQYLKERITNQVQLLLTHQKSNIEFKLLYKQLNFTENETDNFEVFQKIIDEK
Sequence of EF CC activity (P40136 whole entry, looked up): as above

Row | Compound | Ki (EF CC activity) | Ki (CyaA CC activity) | Ki (EF AC activity [1]) | Ki (CyaA AC activity) | Ki (EF AC activity [2])
1 | MANT-GTP | 2.8 ± 0.4 µM | 6.1 ± 2 µM | 2.5 ± 0.1 µM | 5.9 ± 1 µM | –
2 | Nc1ncnc2c1ncn2CCOCP(=O)(O)OP(=O)(O)OP(=O)(O)O [PMEApp, [9-[2-(Phosphonomethoxy)ethyl]adenine diphosphate]] | 0.0045 ± 0.0004 µM | – | – | – | 0.002 ± 0.0005 µM
3 | MANT-ATP | – | 4.4 ± 0.1 µM | – | 4.3 ± 0.4 µM | –
